Measurements: US6423729B1, “Therapeutic or prophylactic agent for glomerulopathy” (Shionogi & Co., Ltd., priority 1997, dated 2002)

Key:
MMP-2 = molecular target: T1, MMP-2 (Homo sapiens, UniProt P08253); assay: Assay for inhibitory activity against MMP-2; format: biochemical
T1 construct: purchased Yagai (Yamagata pref., Japan)
T1 sequence (P08253 110-660): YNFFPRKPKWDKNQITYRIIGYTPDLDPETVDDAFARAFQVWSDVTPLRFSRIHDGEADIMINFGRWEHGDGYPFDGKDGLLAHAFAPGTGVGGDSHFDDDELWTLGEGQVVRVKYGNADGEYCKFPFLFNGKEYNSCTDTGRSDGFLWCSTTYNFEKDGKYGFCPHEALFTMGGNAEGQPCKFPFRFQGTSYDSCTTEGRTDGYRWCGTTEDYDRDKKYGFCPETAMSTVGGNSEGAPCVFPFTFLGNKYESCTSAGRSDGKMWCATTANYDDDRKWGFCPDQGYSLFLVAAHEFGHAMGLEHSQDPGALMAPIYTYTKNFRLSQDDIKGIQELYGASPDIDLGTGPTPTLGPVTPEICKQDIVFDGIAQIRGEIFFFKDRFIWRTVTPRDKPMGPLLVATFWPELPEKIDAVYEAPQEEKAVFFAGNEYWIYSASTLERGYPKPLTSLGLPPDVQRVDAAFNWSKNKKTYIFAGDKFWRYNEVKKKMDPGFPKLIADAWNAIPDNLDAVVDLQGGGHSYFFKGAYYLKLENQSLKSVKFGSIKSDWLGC
Procedure: (§1) Assay for Inhibitory Activities of MMP-9 and MMP-2
(§2) The enzymatic activity was analyzed on the method described by Knight, C. G., et al. (C. Graham Knight., Frances Willenbrock and Gillian Murphy: A novel coumarin-labelled peptide for sensitive continuous assays of the matrix metalloproteinases. FEBS Lett., 296 (1992) 263-266).
MMP-2 was purchased from Yagai (Yamagata pref., Japan).
(§3) MOCAc-Pro-Leu-Gly-Leu-A2pr(Dnp)-Ala-Arg-NH2 as a substrate was purchased from Petide Institute(Osaka pref., Japan). This substrate was dissolved in DMSO at a concentration of 1 mM.
(§4) Reaction buffer consists of 50 mM Tris-HCl buffer (pH 7.5) containing 10 mM CaCl2, 0.3 M NaCl, 0.005% Brij35 and 0.01% NaN3.
Assay Method of Inhibitory Activity Against MMP-2:
(§5) 1.0 μl of a tested compound in DMSO is added to 48.0 μl of a reaction buffer containing 0.05 μl of an enzyme solution. After standing for 60 minutes at room temperature, the reaction was started by adding 1.0 μl of a substrate solution. After incubation for 60 minutes at room temperature, 100 μl of 3% (v/v) AcOH for reaction stopping and measured a fluorescence with excitation and emission at 320 nm and 405 nm, respectively (Spectrophotofluorometer; Fluoroscan Ascent (Labsystem)).
(§6) The measurement of the inhibitory activities (IC50) was carried out in a following four methods;
(§7) A) Reaction with substrate, enzyme and inhibitor
(§8) B) Reaction with substrate and inhibitor, without enzyme
(§9) C) Reaction with substrate and enzyme, without inhibitor
(§10) D) Reaction with substrate only
(§11) IC50 values were calculated by using a following formula and each fluorescence values of above four methods (A to D).
(§12) % inhibition={1−(A−B)/(C−D)}×100
(§13) IC50 means the concentration required to inhibit 50% of the enzyme activity.

MMP-9 = molecular target: T2, MMP-9 (Homo sapiens, UniProt P14780); assay: Assay for inhibitory activity against MMP-9; format: biochemical
T2 construct: made in house; host or cells: HT1080 human fibrosarcoma cells; endogenous protein secreted after TPA treatment and purified from conditioned medium
Procedure: as §1, §2
MMP-9 was purified by using a combination of procedures described in previous reports as follows. Yasunori Okada, Yukio Gonoji, Katsumi Naka, Katsuro Tomita, Isao Nakanishi, Kazushi Iwata and Taro Hayakawa: Matrix metalloproteinase 9 (92-kDa gelatinase/type IV collagenase) from HT1080 human fibrosarcoma cells. Purification and activation of the precursor and enzymic properties. J. Biol. Chem., 267 (1992) 21712-21719. Yasunori Okada, Tatsuhisa Morodomi, Jan J, Enghild, Ko Suzuki, Atsushi Yasui, Isao Nakanishi, Guy Salvesen and Hideaki Nagase: Matrix metalloproteinase 2 from human rheumatoid synovial fibroblasts. Purification and activation of the precursor and enzymic properties. Eur. J. Biochem. 194 (1990) 721-730. Robin V Ward, Rosalind M Hembry, John J Reynolds and Gillian Murphy: The purification of tissue inhibitor of metalloproteinase-2 from its 72 kDa progelatinase complex. Biochem. J. 278 (1991) 179-187.
Briefly, human fibrosarcoma ATCC HT1080 cell line was cultured to confluent in Dulbecco's Modified Medium (DMEM) containing 10% fetal-calf serum at 37° C. for 48 hours. Subsequently, the medium of confluent culture was changed to serum-free DMEM medium. To obtain MMP-9, Phorbol-12-myristate-13-acetate (TPA) must be added to this serum-free DMEM medium at a concentration of 50 ng/ml. The TPA treated medium was centrifuged at 3000 rpm for 15 min and the supernatant was concentrated to 450 ml by a Toyo-Roshi UP-20 apparatus with an ultrafiltration membrane. Then, proMMP-9 in this concentrated solution was purified by using columns of Gelatin-Sepharose and Concanavalin A-Sepharose. The pool containing proMMP-9 was dialyzed, concentrated (Toyo-Roshi UP-20) and applied to columns of Sephacryl S-200 and Green A matrix for the separation from TIMPs. The obtained proMMP-9 fraction was activated by TPCK-Trypsin (final conc. […] reaction mix.) for the assay.
as §3, §4
Assay Method of Inhibitory Activity Against MMP-9:
as §5, with “0.08” for “0.05”
as §6, §7, §8, §9, §10, §11, §12, §13

[1] = tested on: E30 monoclonal antibody-induced glomerulonephritis in Slc-Wistar rats; assay: Urinary protein excretion in E30 monoclonal antibody-induced glomerulonephritis rats; format: in vivo, rat; conditions: urinary protein excretion on day 2 after E30 injection, compound-treated vs vehicle-treated group, oral, 100 mg once a day, first dose 2 hours before E30
Procedure: Five to eight weeks old male Slc-Wistar rats were used in the experiment.
In order to induce glomerulonephritis, E30 of 20 to 500 μg, preferably 50 to 200 μg, is intravenously injected to rats of five to eight weeks old. Test compounds of 0.1 to 500 mg, preferably 1 to 200 mg, are suspended with 3 to 10%, preferably 4 to 6%, gum arabic solution and the like, and are orally given 1 to 5 hours, preferably 1.5 to 3 hours, prior to E30 injection. Constant amount of test compounds are then consecutively given 1 to 3 times a day. Evaluation of test compounds are determined by the amount of urinary protein excretion 2 days after E30 injection when proteinuria reaches to the maximum level.
Determination of the amount of urinary protein excretion is performed by the collection of 24-hour urine samples with stainless metabolic cages followed by the measurement of the concentration of urinary protein. Blood samples obtained at the follow-up period are processed for the determination of blood urea nitrogen and plasma creatinine, which indicate renal function. As a marker of damaged renal tubules, urinary amounts of N-acetyl-D-glycosaminidase excretion is measured. Furthermore, to study the inhibitory effects of compounds on mesangial proliferation following E30 injection, the number of PCNA (proliferating cell nuclear antigen) positive cells per single glomerulus is counted. Morphological changes are observed with light and electron microscopy.
5-week-old male Slc-Wistar rats were reared under the conditions of room temperature of 25° C., 40-60% humidity and 12 hour cycles of light and darkness and fed on solid chow (CA-1, Clea Japan) and tap water ad libitum. After one week's preliminary rearing, each rat was housed in a stainless metabolic cage for acclimation for one week, and was used for experiment at 7 weeks of old (body weight: 150-180 g). E30 monoclonal antibody (J.J.N., vol. 36, p106, 1994) was diluted with saline at 100 μg/0.4 ml and was administered from tail vein at the volume of 0.4 ml/body. Compound (2) was suspended with 5% gum arabic solution and was given at the dose of 100 mg 2 hours before E30 injection. Subsequently, compound (2) of 100 mg was orally administered once a day from the next day. The rats were housed in stainless metabolic cages just after the administration of test compound, and then 24-hour urine samples were collected. After measuring the volume, the urine was centrifuged at 3000 rpm for 10 min at room temperature. […] Urinary protein was determined by pyrogallole red method (Micro TP-test Wako, Wako Zyunyaku). The amount of urinary protein excretion on day 2 in compound-treated group was compared with that in vehicle-treated one, and inhibitory ratio of urinary protein excretion was calculated. […]

T2 sequence (P14780 107-707 limits assumed): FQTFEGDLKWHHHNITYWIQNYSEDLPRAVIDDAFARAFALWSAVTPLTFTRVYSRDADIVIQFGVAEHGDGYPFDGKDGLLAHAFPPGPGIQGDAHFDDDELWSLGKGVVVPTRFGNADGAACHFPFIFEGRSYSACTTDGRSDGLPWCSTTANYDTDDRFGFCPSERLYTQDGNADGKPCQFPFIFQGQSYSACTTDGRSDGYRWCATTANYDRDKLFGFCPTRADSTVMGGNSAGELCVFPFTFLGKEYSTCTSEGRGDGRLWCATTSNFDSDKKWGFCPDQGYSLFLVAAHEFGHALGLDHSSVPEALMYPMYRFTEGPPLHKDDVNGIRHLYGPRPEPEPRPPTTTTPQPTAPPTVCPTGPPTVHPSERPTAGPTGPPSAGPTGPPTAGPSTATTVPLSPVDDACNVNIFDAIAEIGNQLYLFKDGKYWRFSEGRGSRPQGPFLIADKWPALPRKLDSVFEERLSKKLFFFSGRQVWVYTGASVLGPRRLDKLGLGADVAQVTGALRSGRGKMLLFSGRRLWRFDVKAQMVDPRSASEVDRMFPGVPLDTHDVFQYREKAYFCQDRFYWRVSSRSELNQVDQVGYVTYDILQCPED

Q: Which results are given for `CCc1ccc(-c2nnn(-c3ccc(S(=O)(=O)N[C@H](Cc4ccccc4)C(=O)O)cc3)n2)cc1` [Compound 108]?
A: melting point: 187 to 189 °C; IC50 (MMP-2): 9.92 nM; IC50 (MMP-9): 31.2 nM; Inhibitory rate (%) of urinary protein excretion [1]: 35%

Q: For `C[C@@H](NS(=O)(=O)c1ccc(-n2nnc(-c3ccc(F)cc3)n2)cc1)C(=O)O` [Compound 114], which melting point is on record?
A: 194 to 195 °C

Q: What about the IC50 (MMP-2) of the same molecule?
A: 27.8 nM

Q: And the IC50 (MMP-9)?
A: 316 nM

Q: What about the “Inhibitory rate (%) of urinary protein excretion” value [1] of the same molecule?
A: 2.7%
